These results are taken from ChEMBL document CHEMBL3507680, “University of Dundee, Gates Library screen for HepG2 cell viability”.

The structures appear in SMILES notation.

A short description of the data set: Human HepG2 cell viability assay in 384 well format. The class given is toxicity, cell-based. Further details: dose 125 nL, time 70.5 hour; cytotoxicity at 70.5 h: concentration not given beside the values. The settings on record: HepG2 cells, read-out: Inhibition.
On to `CCN(C)S(=O)(=O)N(CC)Cc1ccc2c(c1)OCO2`, for which the cytotoxicity at 70.5 h was -17.8%.
On to `Cc1nn(C)c(N(C)C)c1CNCc1cccc(CN(C)C(C)C)c1`, for which the cytotoxicity at 70.5 h was -9.1%.
As to `COC(=O)c1ccoc1CN(C)Cc1ccccc1`, the cytotoxicity at 70.5 h was -0.994%.
Take `c1coc(-c2nnc(CN3CCCC(CN4CCCCCC4)C3)o2)c1` (stereo not given): the cytotoxicity at 70.5 h was -1.85%.
Regarding `CN(C)CCn1ccnc1C1CCCN(C(=O)CCc2cccnc2)C1` (stereo not given), the cytotoxicity at 70.5 h is -4.26%.
`Cc1cccc(CN(Cn2nc(C)c3c(C)onc3c2=O)C2CC2)c1`: the cytotoxicity at 70.5 h is -13.7%.
Next, `O=C(c1csc(Br)c1)N1CCCC(n2ccnc2)C1` (stereo not given): 12.4%.
Regarding `Cc1cn(CC(=O)NC2CCN(C(C)C)CC2)c2ccccc12`, the cytotoxicity at 70.5 h is -1.25%.
`O=C(O)C1CC2(CCN(c3nccc4ccccc34)CC2)CN1` (stereo not given): the cytotoxicity at 70.5 h was 9.49%.
With `CN1CCOC(C(=O)N2CCOC3(CCCC3)C2)C1` (stereo not given), the cytotoxicity at 70.5 h is -1.85%.
With `O=C1NCC(c2ccc(Cl)cc2)Cc2[nH]c(CCN3CCOCC3)nc21` (stereo not given), the cytotoxicity at 70.5 h was -12.7%.
As for `CC(C)NC(=O)N(C)C(c1cccc(F)c1)c1ccccn1` (stereo not given), the cytotoxicity at 70.5 h is -7.96%.
Under `CN(Cc1ccccn1)C(=O)c1cc(CN2CCC(O)CC2)on1` stands -16.8%; under `c1cc(CCN2CCN(c3ccc4nncn4n3)CC2)ccn1`, -11.9%.
Next, `CCCc1noc(CNc2cc(C[S+](C)[O-])ccc2Cl)n1` (stereo not given): -3.29%; `O=C(NCCSC1CCCC1)c1cc(Cl)ccn1`: 22.7%; `O=C(Cn1ccnc1)N1C[C@@H]2CC[C@H](Oc3ccccc3F)[C@@H]2C1`: 10.9%.
Take `CCS(=O)(=O)N(C)C1CCN(c2cccc(F)c2C(C)=O)CC1`: the cytotoxicity at 70.5 h is -4.38%.
Under `CN(C)C(=O)CN1C[C@@H]2CC[C@H](C1)N(Cc1c(F)cccc1Cl)C2` stands -6.28%; under `CC(O)(CCc1ccccc1)CNC(=O)c1ccsc1` (stereo not given), -2.72%; under `Cc1ccc2c(c1)C(NCc1nnc3n1CCCCC3)CCCO2` (stereo not given), 11.8%.
Under `CC(C)Nc1nc(N2CCCC2)nc2c1CN(C)CC2` stands -9.83%; under `O=C(NC1CC1)C(c1ccccc1)N1CCN(Cc2ccc(Cl)s2)CC1` (stereo not given), -3.83%; under `CCS(=O)(=O)CC(=O)NC(c1ccccc1)C1CCCCC1` (stereo not given), 2.89%.
On to `O=C(COCc1nc(-c2ccncc2)no1)NC1CCCCC1`, for which the cytotoxicity at 70.5 h is -2.53%.
Under `O=S(=O)(c1c(N2CCCC2)ccc2nonc12)N1CCCC1` stands -1.28%; under `Cc1cc(C)c2nc(CNCCNS(C)(=O)=O)cc(O)c2c1`, -2.21%; under `COCCN(Cc1ccccn1)C(=O)Nc1cccnc1-n1cccn1`, 18.4%.
In the case of `C[C@@]1(O)CCN(Cc2cc[nH]n2)C[C@H]1Oc1cccc(F)c1`, the cytotoxicity at 70.5 h is -2.59%.
Next, `CCOCCN1CCN(CC2(O)CCCCC2)CC1`: -4.54%.
On to `CS(=O)(=O)N1CCC(Oc2ccc(C#N)cc2)CC1`, for which the cytotoxicity at 70.5 h was 7.19%.
With `Cc1cc(-c2nc(-c3cccc(CN4CCOCC4)c3)no2)no1`, the cytotoxicity at 70.5 h stood at 0.395%.
For the molecule `CC(C)COCC(NC(=O)CSc1nnc[nH]1)c1ccco1` (stereo not given), the cytotoxicity at 70.5 h is -12.5%.
As to `CN(C)C(=O)CN1CC[C@H]2[C@H]1CCN2c1ncccn1`, the cytotoxicity at 70.5 h is -20.8%.
Consider `CNS(=O)(=O)c1ccc(CNC(=O)N2CCOC(C)C2)cc1` (stereo not given), for which the cytotoxicity at 70.5 h was found to be 10.2%.
As for `C=C(C)CNc1nc(CS(=O)(=O)c2ccccc2)cs1`, the cytotoxicity at 70.5 h was -2.16%.
For the molecule `CC(NC(=O)c1cccc[n+]1[O-])c1ccc2c(c1)CCC(=O)N2` (stereo not given), the cytotoxicity at 70.5 h is -3.74%.
Under `COc1ccc(CN2C[C@@H](CN(C)CCO)[C@@H](CO)C2)cc1Cl` stands -7.1%; under `Cc1n[nH]c(C)c1Sc1ccccc1NC(=O)N1CCCC(C(N)=O)C1` (stereo not given), 5.35%; under `Cn1ncc2c1C(COCC1CC1)CN(Cc1ccsc1)C2` (stereo not given), 2.88%.
In the case of `COCCCn1nnc(C2(NC(=O)c3ccccc3)CCCC2)n1`, the cytotoxicity at 70.5 h is -12.2%.
On to `CCN(C)c1ncnc2c1CCN(Cc1ccc(F)cc1)CC2`, for which the cytotoxicity at 70.5 h was 19.9%.
Under `O=C(CN1CCC(c2cccc(F)c2)C1)NCC(F)(F)F` (stereo not given) stands 26.9%; under `Nc1nc(CCCNC(=O)c2ccccc2C2CCNC2)cs1` (stereo not given), -20.9%; under `CN1CCN(C(=O)COCc2nc(-c3ccncc3)no2)CC1`, 17.1%.
As to `Cc1cc(C[S+]([O-])CC(=O)NCc2cccc(Cl)c2)no1` (stereo not given), the cytotoxicity at 70.5 h was -10.3%.
`Cc1ccc(C(=O)NC2CCCCNC2=O)c(=O)[nH]1` (stereo not given): the cytotoxicity at 70.5 h is -6.58%.
Take `CCC(CO)N(Cc1ccco1)C(=O)c1ccccc1NC` (stereo not given): the cytotoxicity at 70.5 h came out at 0.632%.
On to `Cc1n[nH]c(C)c1CCN(C)c1ccc(-c2nc(C3CC3)no2)cn1`, for which the cytotoxicity at 70.5 h came out at 4.49%.
Take `CCc1n[nH]c(C2CN(C(=O)c3ccnc(N(C)C)c3)CCO2)n1` (stereo not given): the cytotoxicity at 70.5 h amounted to 20.1%.
Consider `Cc1ncc(C(=O)N2CCCN(Cc3ccccc3F)CC2)c(O)n1`, for which the cytotoxicity at 70.5 h was -12.9%.
With `CC1CCCCN1C(=O)c1cn(-c2ccc(C(F)(F)F)cn2)nn1` (stereo not given), the cytotoxicity at 70.5 h was -6.25%.
With `Clc1ccc(CNc2ccc(Cl)cn2)cc1`, the cytotoxicity at 70.5 h is -9.29%.
Regarding `CC(=O)NCc1nc(CCOc2ccc(Cl)cc2)no1`, the cytotoxicity at 70.5 h is -4.84%.
Next, `CC(C)CN1C(=O)CO[C@@H]2CNC[C@H]21`: -10.3%.
On to `Cc1nn(CCCNC(=O)C2CCN(S(C)(=O)=O)CC2)cc1Cl`, for which the cytotoxicity at 70.5 h was 36.7%.
For the molecule `O=C(NS(=O)(=O)Cc1ccc(F)cc1)C1CCOc2ccccc21` (stereo not given), the cytotoxicity at 70.5 h was -9.19%.
Turning to `Cc1cnc(NC(C)Cc2cccnc2)nc1N(C)C` (stereo not given), the cytotoxicity at 70.5 h was 0.166%.
Under `Cc1cc(CN2C[C@H]3CCC[C@@]3(COCc3csc(C)n3)C2)no1` stands -9.15%; under `Cc1cc(C)n(CC2CCCN2C(=O)c2ccc(N(C)C)nn2)n1` (stereo not given), -10.8%; under `CC1(C)[C@H](Cc2cc(CN3CCOCC3)on2)C[C@@H]1NC(=O)C1CCC1`, 11.5%.
As to `O=c1ccc2c([nH]1)CCN(S(=O)(=O)c1ccc3c(c1)OCCO3)C2`, the cytotoxicity at 70.5 h was found to be 1.39%.
Next, `CC(=O)N1CCc2[nH]cnc2C12CCN(C(=O)Cc1ccccn1)CC2`: -14.9%; `Cc1cc(NC(=O)C2CN(Cc3ccccc3)CCO2)ccn1` (stereo not given): 13%.
Under `O=C(c1ccncc1F)N1Cc2nc(COCC3CC3)oc2C1` stands -15.8%.
Take `CCC(Nc1nc(C2CCCC2)nc2c1cnn2C)c1ccncc1` (stereo not given): the cytotoxicity at 70.5 h amounted to 8.01%.
Regarding `NC(=O)C1CCN(C(=O)C2SCCc3sccc32)CC1` (stereo not given), the cytotoxicity at 70.5 h is -10.3%.
Consider `CCOCCCNC(=O)CCSCc1csc(C)n1`, for which the cytotoxicity at 70.5 h is -2.1%.
Next, `O=C(NCc1ccccn1)Nc1cc(C(F)(F)F)c[nH]c1=O`: 9.08%; `CCc1ncc2c(n1)CN(c1cc(NC3CC3)nc(N)n1)C2`: -8.23%.
On to `C[C@@H](O)CNC(=O)CCc1nc2cccnc2[nH]1`, for which the cytotoxicity at 70.5 h is -23.4%.
For `Cc1ncc2c(c1CNC(=O)C1(C)CCCCO1)CCNC2` (stereo not given), the cytotoxicity at 70.5 h was 0.49%.
Take `CCn1nc(C)c(CNC(=O)c2nnc3ccccc3n2)c1C`: the cytotoxicity at 70.5 h was determined as 0.73%.
On to `CCCNC(=O)Cn1cc(OC)c(=O)cc1CSc1nc(C)cc(C)n1`, for which the cytotoxicity at 70.5 h was -13.1%.
Under `NCc1cnn(-c2ccccc2C(=O)NCCc2ccncc2)c1` stands -7.18%.
Under `CN(C)CCn1ccnc1C1CCCN(c2cc(N)ncn2)C1` (stereo not given) stands 23.6%; under `CCS(=O)(=O)N1C[C@@H](c2nnc(C)o2)C[C@H]2OCC[C@H]21`, -9.81%; under `Cc1nn(C)c(C)c1CC(=O)N1CCC(Nc2cccnn2)CC1`, 35.9%.
With `Cc1nc(C)n(C2CCCN(C(=O)COCc3ccccc3)C2)n1` (stereo not given), the cytotoxicity at 70.5 h is -0.931%.
As for `CC(CCc1ccco1)NC(=O)Nc1cc(C(F)(F)F)c[nH]c1=O` (stereo not given), the cytotoxicity at 70.5 h stood at 0.203%.
Turning to `CCN(Cc1nc(C2CC2)no1)Cc1ccc(C#N)cc1F`, the cytotoxicity at 70.5 h is -3.69%.
Turning to `O[C@@H]1CN(Cc2ccc(F)c(F)c2)CC[C@H]1NCc1ccccn1`, the cytotoxicity at 70.5 h was found to be 22.5%.
For the molecule `CC(C)N(C)Cc1n[nH]c2c1CCN(C(=O)c1ccc[nH]1)C2`, the cytotoxicity at 70.5 h came out at 21%.
Under `Cc1ccc(C(=O)N2CCc3ncc(Cn4cccn4)n3CC2)o1` stands -3.58%; under `O=C(CCNC(=O)C1CCCC1)NCc1ccccc1Cn1ccnc1`, -8.37%; under `CSc1ccc(C(CC(=O)O)NC(=O)c2cc(C)on2)cc1` (stereo not given), 0.955%.
Turning to `CCCC(=O)N1CCC2(CC1)OCCO2`, the cytotoxicity at 70.5 h is -2.35%.
Next, `CC(C)N1CCCC2(CCN(C(=O)CCCn3cccn3)C2)C1=O` (stereo not given): 6.53%.
For `Cc1ccccc1C1CCN(CCn2cc(-c3cccc(O)c3)nn2)C1` (stereo not given), the cytotoxicity at 70.5 h was found to be 29.4%.
Under `OCCN1CCCC(c2cccc(-c3ccccc3F)n2)C1` (stereo not given) stands -5.22%.
Regarding `CN1CCN(c2ncnc3c2CCN(c2ncc(F)cn2)CC3)CC1`, the cytotoxicity at 70.5 h is -1.02%.
On to `Cc1ccc(C(=O)N2C[C@@H]3OCCN(C)[C@@H]3C2)cn1`, for which the cytotoxicity at 70.5 h was -2.77%.
Next, `Cc1ncc2c(n1)CN(CC(=O)Nc1nncs1)CC2`: -6.76%.
As to `CCCc1cnc(C)nc1N1CCC2(CC1)CNC(=O)O2`, the cytotoxicity at 70.5 h amounted to 10.5%.
For the molecule `Cc1noc(C)c1CNC(C(=O)N1CCOCC1)C(C)C` (stereo not given), the cytotoxicity at 70.5 h was -7.07%.
Under `c1nc2c(c(C3CC3)n1)CCN(CC1CCOC1)CC2` (stereo not given) stands -13.3%; under `Cc1noc(C)c1CCC(=O)N1CCOCC1CC(=O)N1CCCC1` (stereo not given), 1.48%.
As to `O=C(c1cccnc1O)N1CCN(CCc2cccs2)CC1`, the cytotoxicity at 70.5 h is -6.9%.
Next, `O=C(NCCOc1ccc(Cl)cn1)Nc1nccs1`: 11%; `CCN(Cc1nc(C)no1)C(=O)C1CC(=O)N(Cc2cccnc2)C1` (stereo not given): 17.6%.
